Patent publication US20240228488A1 (TAKEDA PHARMACEUTICAL COMPANY LIMITED, priority 2021, published 2024)

Key:
[1] = molecular target: T1, plasma kallikrein (Homo sapiens, UniProt P03952); test: Neat human plasma assay, FXIIa contact pathway-activated, PFR-AMC substrate; type: biochemical; details: citrated human plasma 78% final, 10 nM human FXIIa, 100 μM PFR-AMC; read-out: Human Plasma Assay: IC90
T1 construct: from tissue
How it was run: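 Compound inhibition of plasma kallikrein measured as PFR-AMC (100 μM) cleavage rate over 5 min at room temperature in 78% citrated human plasma activated with 10 nM FXIIa (Tris pH 7.5 buffer). IC50/IC90 from 4-parameter fit of rate versus inhibitor concentration.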

[2] = molecular target: human activated kallikrein enzyme (Homo sapiens, UniProt P03952); test: Plasma kallikrein inhibition, fluorogenic PFR-AMC substrate, 500 pM activated kallikrein format; type: biochemical; details: 500 pM activated kallikrein, 300 uM PFR-AMC, 30 min preincubation, 10 min reaction; read-out: Primary Dose Response Assay: Average EC50
Sequence of human activated kallikrein enzyme (P03952 391-638 limits assumed): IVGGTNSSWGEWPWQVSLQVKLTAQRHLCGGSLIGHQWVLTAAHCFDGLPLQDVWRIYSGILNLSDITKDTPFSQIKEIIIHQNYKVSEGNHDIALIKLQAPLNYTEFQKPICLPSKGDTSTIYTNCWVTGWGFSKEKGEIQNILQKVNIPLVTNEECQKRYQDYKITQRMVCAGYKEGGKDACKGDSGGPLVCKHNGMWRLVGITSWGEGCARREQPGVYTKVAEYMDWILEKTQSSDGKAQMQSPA
Sequence of human activated kallikrein enzyme (P03952 20-390 partner limits assumed): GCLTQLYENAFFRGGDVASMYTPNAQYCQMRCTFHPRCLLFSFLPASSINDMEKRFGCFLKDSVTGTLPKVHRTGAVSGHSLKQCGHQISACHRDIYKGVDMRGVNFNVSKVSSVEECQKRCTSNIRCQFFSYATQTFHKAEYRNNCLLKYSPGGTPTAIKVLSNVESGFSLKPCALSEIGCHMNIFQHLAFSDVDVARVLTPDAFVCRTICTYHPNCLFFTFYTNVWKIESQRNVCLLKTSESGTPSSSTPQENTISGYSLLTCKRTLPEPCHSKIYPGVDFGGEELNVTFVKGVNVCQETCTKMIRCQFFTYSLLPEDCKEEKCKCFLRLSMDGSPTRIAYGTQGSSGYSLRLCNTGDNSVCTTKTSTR
How it was run: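 Fluorescence (ex 380/em 460 nm) is read after 10 min of 300 uM PFR-AMC turnover by 500 pM enzyme at RT. Compounds sit with enzyme for 30 min beforehand. Buffer is Tris (pH 7.5) with EDTA, NaCl, PEG-400 and Triton X-100; EC50 values are banded.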

T1 sequence (P03952 391-638 limits assumed): as the sequence (P03952 391-638 limits assumed) above
T1 sequence (P03952 20-390 partner limits assumed): as the sequence (P03952 20-390 partner limits assumed) above

IC90 [1]	EC50 [2]	SMILES
1500 to 10000 nM	1 to 10 nM	O=C(Nc1cc(NCc2cn3cc(C4CC4)cc(-c4ccc[nH]c4=O)c3n2)ncn1)[C@H]1C[C@@H]1c1cccc(Cl)c1 [Example 305, (1S,2S)-2-(3-chlorophenyl)-N-(6-(((6-cyclopropyl-8-(2-oxo-1,2-dihydropyridin-3-yl)imidazo[1,2-a]pyridin-2-yl)methyl)amino)pyrimidin-4-yl)cyclopropane-1-carboxamide]
< 400 nM	< 1 nM	CN1CC(c2cc(C3CC3)cn3cc(CNc4cc(NC(=O)[C@H]5C[C@@H]5c5cccc(Cl)c5)ncn4)nc23)C1 [Example I-193, (1S,2S)-2-(3-chlorophenyl)-N-(6-(((6-cyclopropyl-8-(1-methylazetidin-3-yl)imidazo[1,2-a]pyridin-2-yl)methyl)amino)pyrimidin-4-yl)cyclopropane-1-carboxamide]
1500 to 10000 nM	< 1 nM	O=C(Nc1cc(NCc2cn3cc(C4CC4)cc(NC4COC4)c3n2)ccn1)[C@H]1C[C@@H]1c1cccc(Cl)c1 [Example I-26, (1S,2S)-2-(3-chlorophenyl)-N-(4-(((6-cyclopropyl-8-(oxetan-3-ylamino)imidazo[1,2-a]pyridin-2-yl)methyl)amino)pyridin-2-yl)cyclopropane-1-carboxamide]
1500 to 10000 nM	< 1 nM	N#Cc1ccc(Cl)cc1[C@H]1C[C@@H]1C(=O)Nc1cc(NCc2cn3cc(C4CC4)cc(COCCO)c3n2)ccn1 (racemic) [Example 289, rac-(1S*,2S*)-2-(5-chloro-2-cyanophenyl)-N-(4-(((6-cyclopropyl-8-((2-hydroxyethoxy)methyl)imidazo[1,2-a]pyridin-2-yl)methyl)amino)pyridin-2-yl)cyclopropane-1-carboxamide]
1500 to 10000 nM	1 to 10 nM	Cc1ccnc([C@H]2C[C@@H]2C(=O)Nc2cc(N(CC(=O)OCc3ccccc3)Cc3cn4cc(C5CC5)cc(N5CC(=O)N(C)C5=O)c4n3)ncn2)n1 [Example 371, benzyl N-((6-cyclopropyl-8-(3-methyl-2,4-dioxoimidazolidin-1-yl)imidazo[1,2-a]pyridin-2-yl)methyl)-N-(6-((1S,2S)-2-(4-methylpyrimidin-2-yl)cyclopropane-1-carboxamido)pyrimidin-4-yl)glycinate]
1500 to 10000 nM	< 1 nM	O=C(Nc1cc(NCc2cn3cc(C4CC4)cc(N4CC(=O)N(C5CC5)C4=O)c3n2)ccn1)[C@H]1C[C@@H]1c1cccc(Cl)c1 [Example 513, (1S,2S)-2-(3-chlorophenyl)-N-(4-(((6-cyclopropyl-8-(3-cyclopropyl-2,4-dioxoimidazolidin-1-yl)imidazo[1,2-a]pyridin-2-yl)methyl)amino)pyridin-2-yl)cyclopropane-1-carboxamide]
< 400 nM	< 1 nM	Cc1ccnc([C@H]2C[C@@H]2C(=O)Nc2cncc(NCc3cn4cc(C5CC5)cc(N5CC(=O)N(C)C5=O)c4n3)c2)n1 (racemic) [Example 575, rac-(1S*,2S*)-N-(5-(((6-cyclopropyl-8-(3-methyl-2,4-dioxoimidazolidin-1-yl)imidazo[1,2-a]pyridin-2-yl)methyl)amino)pyridin-3-yl)-2-(4-methylpyrimidin-2-yl)cyclopropane-1-carboxamide]
400 to 1500 nM	< 1 nM	Cc1ccc(C#N)c([C@H]2C[C@@H]2C(=O)Nc2cc(NCc3cn4cc(C5CC5)cc(N5CC(=O)N(C)C5=O)c4n3)ncn2)n1 (racemic) [Example I-166, rac-(1S*,2S*)-2-(3-cyano-6-methylpyridin-2-yl)-N-(6-(((6-cyclopropyl-8-(3-methyl-2,4-dioxoimidazolidin-1-yl)imidazo[1,2-a]pyridin-2-yl)methyl)amino)pyrimidin-4-yl)cyclopropane-1-carboxamide]
1500 to 10000 nM	< 1 nM	CN1CCN(C(=O)c2cc(C3CC3)cn3cc(CNc4cc(NC(=O)[C@H]5C[C@@H]5c5cccc(Cl)c5)ncn4)nc23)CC1 [Example 301, (1S,2S)-2-(3-chlorophenyl)-N-(6-(((6-cyclopropyl-8-(4-methylpiperazine-1-carbonyl)imidazo[1,2-a]pyridin-2-yl)methyl)amino)pyrimidin-4-yl)cyclopropane-1-carboxamide]
10000 to 48000 nM	< 1 nM	NCc1cc(C2CC2)cn2cc(CNc3ccnc(NC(=O)[C@H]4C[C@@H]4c4cccc(Cl)c4)c3)nc12 (racemic) [Example 120, rac-(1S*,2S*)—N-(4-(((8-(aminomethyl)-6-cyclopropylimidazo[1,2-a]pyridin-2-yl)methyl)amino)pyridin-2-yl)-2-(3-chlorophenyl)cyclopropane-1-carboxamide]
< 400 nM	< 1 nM	CN1CCN(c2cc(C3CC3)cn3cc(CNc4ccnc(NC(=O)[C@H]5C[C@@H]5c5cccc(Cl)c5)c4)nc23)CC1 [Example 138, (1S,2S)-2-(3-chlorophenyl)-N-(4-(((6-cyclopropyl-8-(4-methylpiperazin-1-yl)imidazo[1,2-a]pyridin-2-yl)methyl)amino)pyridin-2-yl)cyclopropane-1-carboxamide]
< 400 nM	< 1 nM	Cc1ccnc([C@@]2(F)C[C@@H]2C(=O)Nc2cc(NCc3cn4cc(C5CC5)cc(N5CC(=O)N(C)C5=O)c4n3)ncn2)n1 (racemic) [Example 496, rac-(1S*,2S*)-N-(6-(((6-cyclopropyl-8-(3-methyl-2,4-dioxoimidazolidin-1-yl)imidazo[1,2-a]pyridin-2-yl)methyl)amino)pyrimidin-4-yl)-2-fluoro-2-(4-methylpyrimidin-2-yl)cyclopropane-1-carboxamide]
< 400 nM	< 1 nM	COc1nc(NC(=O)[C@H]2C[C@@H]2c2nccc(C)n2)cc(N(C)Cc2cn3cc(C4CC4)cc(N4CC(=O)N(C)C4=O)c3n2)n1 [Example 406, (1S,2S)-N-(6-(((6-cyclopropyl-8-(3-methyl-2,4-dioxoimidazolidin-1-yl)imidazo[1,2-a]pyridin-2-yl)methyl)(methyl)amino)-2-methoxypyrimidin-4-yl)-2-(4-methylpyrimidin-2-yl)cyclopropane-1-carboxamide]
400 to 1500 nM	< 1 nM	CN1CCN(c2cc(C3CC3)cn3cc(CNc4ccnc(NC(=O)[C@H]5C[C@@H]5c5cccc(Cl)c5)n4)nc23)CC1 [Example 88, (1S,2S)-2-(3-chlorophenyl)-N-(4-(((6-cyclopropyl-8-(4-methylpiperazin-1-yl)imidazo[1,2-a]pyridin-2-yl)methyl)amino)pyrimidin-2-yl)cyclopropane-1-carboxamide]
400 to 1500 nM	< 1 nM	Cc1ccnc([C@H]2C[C@@H]2C(=O)Nc2cc(NC(C)c3cn4cc(C5CC5)cc(N5CC(=O)N(C)C5=O)c4n3)nc(C)n2)n1 (stereo partly drawn) [Example 454, (1S,2S)—N-(6-((1-(6-cyclopropyl-8-(3-methyl-2,4-dioxoimidazolidin-1-yl)imidazo[1,2-a]pyridin-2-yl)ethyl)amino)-2-methylpyrimidin-4-yl)-2-(4-methylpyrimidin-2-yl)cyclopropane-1-carboxamide]
1500 to 10000 nM	< 1 nM	Cc1ccnc([C@H]2C[C@@H]2C(=O)Nc2cc(NC(C)c3cn4cc(C5CC5)cc(N5CC(=O)N(C)C5=O)c4n3)ncn2)n1 (relative stereo) [Example 449, rac-(1S*,2S*)—N-(6-((1-(6-cyclopropyl-8-(3-methyl-2,4-dioxoimidazolidin-1-yl)imidazo[1,2-a]pyridin-2-yl)ethyl)amino)pyrimidin-4-yl)-2-(4-methylpyrimidin-2-yl)cyclopropane-1-carboxamide]
